Reference: the supplement of paper PMC8960247
Where a name gives a salt, the structure may show the parent alone. ± gives the standard error.

Key:
[1] = test system: UMB1949 (TSC2-deficient); assay: relative viability vs DMSO (fraction); higher = less cytotoxic; settings: serum: 0.1% FBS, 72 h;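 note: renal angiomyolipoma cell lines screened in 384-well plates, viability normalized per plate to DMSO-treated cells, each plate carrying 50 nM rapamycin and 1 µM staurosporine controls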
[2] = test system: 621-102 (TSC2-deficient); assay: as above; settings: serum: 0.1% FBS, 72 h
[3] = test system: 621-103 (TSC2-rescued); assay: relative viability vs DMSO; higher = less cytotoxic; settings: serum: 10% FBS, 72 h
[4] = test system: 621-102 (TSC2-deficient); assay: as above; settings: serum: 10% FBS, 72 h

SMILES | relative viability ([1]; 0.0128 nM) | relative viability ([1]; 0.064 nM) | relative viability ([1]; 0.32 nM) | relative viability ([1]; 1.6 nM) | relative viability ([1]; 8 nM) | relative viability ([1]; 40 nM) | relative viability ([1]; 200 nM) | relative viability ([1]; 1000 nM) | relative viability ([1]; 5000 nM) | relative viability ([2]; 0.0128 nM) | relative viability ([2]; 0.064 nM) | relative viability ([2]; 0.32 nM) | relative viability ([2]; 1.6 nM) | relative viability ([2]; 8 nM) | relative viability ([2]; 40 nM) | relative viability ([2]; 200 nM) | relative viability ([2]; 1000 nM) | relative viability ([2]; 5000 nM) | relative viability ([3]; 0.0001 µM) | relative viability ([3]; 0.001 µM) | relative viability ([3]; 0.01 µM) | relative viability ([3]; 0.1 µM) | relative viability ([3]; 1 µM) | relative viability ([3]; 10 µM) | relative viability ([4]; 0.0001 µM) | relative viability ([4]; 0.001 µM) | relative viability ([4]; 0.01 µM) | relative viability ([4]; 0.1 µM) | relative viability ([4]; 1 µM) | relative viability ([4]; 10 µM)
Nc1nc2[nH]cc(CCc3ccc(C(=O)N[C@@H](CCC(=O)O)C(=O)O)cc3)c2c(=O)[nH]1 [Pemetrexed disodium] | 1.05 | 0.979 | 1.03 | 0.984 | 1.02 | 0.0167 | 0.00471 | 0.00243 | 0.000722 | 1.25 | 1.15 | 1.17 | 1.17 | 1.09 | 0.126 | 0.0307 | 0.0251 | 0.0247 | 102 ± 2.4% | 92.3 ± 6.5% | 102 ± 1.6% | 106 ± 1.4% | 104.4 ± 0.47% | 88.6 ± 7.4% | 107 ± 2.3% | 101 ± 4.2% | 107 ± 5.4% | 93.8 ± 4.3% | 94.1 ± 6.1% | 81.27 ± 0.71%
Nc1cccc2c1C(=O)N(C1CCC(=O)NC1=O)C2=O (stereo not given) [Pomalidomide] | 1.06 | 0.959 | 1.04 | 1.03 | 1.18 | 1.04 | 1.07 | 0.943 | 0.912 | 1.18 | 0.947 | 1.03 | 0.975 | 0.951 | 1.02 | 0.939 | 0.985 | 0.951 | 104.77 ± 0.07% | 102.3 ± 0.72% | 101.3 ± 0.69% | 96.9 ± 1.3% | 98.59 ± 0.92% | 100.7 ± 0.95% | 107 ± 1.1% | 112 ± 1.7% | 108 ± 3.3% | 116 ± 1.5% | 118 ± 2.1% | 118 ± 4%
Cn1c(Nc2ccc(C(F)(F)F)cc2)nc2cc(Oc3ccnc(-c4ncc(C(F)(F)F)[nH]4)c3)ccc21 [RAF265] | 1.1 | 1.02 | 1.13 | 1.06 | 1.19 | 1.11 | 0.216 | 0.00279 | 0.00183 | 1.01 | 1.13 | 1.04 | 1.07 | 0.927 | 0.488 | 0.0802 | 0.0481 | 0.00102 | 99.71 ± 0.95% | 102 ± 2.3% | 100.7 ± 0.72% | 92.7 ± 2.6% | 78.2 ± 2.2% | 64.1 ± 0.7% | 111 ± 3.9% | 107 ± 4.3% | 101 ± 2.5% | 92.9 ± 1.1% | 60.4 ± 1.5% | 41.5 ± 2%
CCCCc1nc2cc(/C=C/C(=O)NO)ccc2n1CCN(CC)CC [SB939] | 1.04 | 1.11 | 1.25 | 1.22 | 1.03 | 0.31 | 0.0114 | 0.00881 | 0.00358 | 1.27 | 0.957 | 0.868 | 0.884 | 0.789 | 0.608 | 0.351 | 0.121 | 0.00937 | 98.4 ± 1.2% | 97.63 ± 0.65% | 96.6 ± 2.1% | 96.7 ± 1.1% | 46.1 ± 2.5% | 2.74 ± 0.067% | 106 ± 2.5% | 116 ± 4.8% | 108.59 ± 0.1% | 96.3 ± 2% | 71.42 ± 0.65% | 35.9 ± 0.61%
Cn1cc(-c2ccc3nnc(Sc4ccc5ncccc5c4)n3n2)cn1 [SGX-523] | 1.09 | 1.05 | 1.17 | 1.23 | 1.03 | 1.11 | 1.19 | 1.04 | 0.718 | 1.13 | 1.07 | 0.971 | 1.13 | 1.06 | 0.984 | 1.01 | 0.991 | 0.776 | 102 ± 1.5% | 96.42 ± 0.71% | 105 ± 2.4% | 102.4 ± 0.49% | 102.2 ± 0.92% | 97.9 ± 1.9% | 104 ± 1.6% | 94.8 ± 6.4% | 103 ± 2.1% | 98.3 ± 4.6% | 103.8 ± 0.28% | 97.5 ± 4.1%
CC1(C)CC(=O)c2c(C(F)(F)F)nn(-c3ccc(C(N)=O)c(N[C@H]4CC[C@H](O)CC4)c3)c2C1 [SNX-2112] | 0.771 | 0.292 | 0.334 | 0.0113 | 0.00964 | 0.00549 | 0.00248 | 0.00255 | 0.00394 | 0.829 | 0.471 | 0.381 | 0.19 | 0.232 | 0.0887 | 0.0644 | 0.0224 | 0.0194 | 112 ± 4% | 111 ± 1.2% | 84.4 ± 1.3% | 7.98 ± 0.57% | 6.9 ± 0.43% | 6.78 ± 0.53% | 60.2 ± 9.5% | 66.4 ± 8.2% | 45.4 ± 5.8% | 21.9 ± 0.44% | 18.9 ± 2.6% | 14.8 ± 0.6%
CO[C@H]1C[C@@H]2CC[C@@H](C)[C@@](O)(O2)C(=O)C(=O)N2CCCC[C@H]2C(=O)O[C@H]([C@H](C)C[C@@H]2CC[C@@H](OC(=O)C(C)(CO)CO)[C@H](OC)C2)CC(=O)[C@H](C)/C=C(\C)[C@@H](O)[C@@H](OC)C(=O)[C@H](C)C[C@H](C)/C=C/C=C/C=C/1C [Temsirolimus] | 0.901 | 0.874 | 0.846 | 0.894 | 0.91 | 0.816 | 0.629 | 0.415 | 0.379 | 0.696 | 0.68 | 0.714 | 0.666 | 0.524 | 0.422 | 0.263 | 0.274 | 0.171 | 84.1 ± 1.2% | 75.1 ± 3.1% | 78.7 ± 1.2% | 83.1 ± 3.1% | 76.9 ± 5% | 67.44 ± 0.43% | 40.82 ± 0.13% | 40.9 ± 3.7% | 36.1 ± 3.5% | 36.5 ± 3.5% | 41.1 ± 4.7% | 40.6 ± 4.3%
Cn1cncc1[C@@](N)(c1ccc(Cl)cc1)c1ccc2c(c1)c(-c1cccc(Cl)c1)cc(=O)n2C [Tipifarnib] | 0.938 | 0.909 | 0.836 | 0.961 | 0.974 | 0.798 | 0.525 | 0.25 | 0.0103 | 0.693 | 0.533 | 0.634 | 0.552 | 0.512 | 0.592 | 0.436 | 0.274 | 0.0644 | 95.09 ± 0.41% | 96 ± 1.6% | 98.8 ± 1.9% | 81.5 ± 3.5% | 75.86 ± 0.6% | 64.3 ± 0.85% | 99.6 ± 4.2% | 117 ± 2.7% | 93.9 ± 2.1% | 89.4 ± 1.5% | 76.4 ± 2.5% | 63.3 ± 1.7%
CC[C@@]1(O)C(=O)OCc2c1cc1n(c2=O)Cc2cc3c(CN(C)C)c(O)ccc3nc2-1 [Topotecan Hydrochloride] | 1.08 | 1.08 | 1.03 | 0.883 | 0.692 | 0.00466 | 0.00116 | 0.000564 | 0.0011 | 1.03 | 0.984 | 1.06 | 0.956 | 0.888 | 0.268 | 0.0393 | 0.00545 | 0.000822 | 106 ± 1.4% | 110.5 ± 0.33% | 102 ± 1.7% | 80.31 ± 0.015% | 26.9 ± 0.65% | 7.57 ± 0.098% | 105 ± 5.7% | 110 ± 4.5% | 103 ± 3.6% | 80.067 ± 0.0095% | 30.3 ± 2.4% | 12.7 ± 0.7%
